# Results reported in PMC3920478, “Small molecule-mediated refolding and activation of myosin motor function” (eLife, 2014).
# Values joined by “and” are separate entries in the source; they are usually repeats but may differ in a detail not shown here. Equal values may be shown once.
# Experiments:
# β-cardiac myosin [1] = target: T1, β-cardiac myosin (Sus scrofa, UniProt P79293); assay: Transient kinetics (stopped-flow) of the ATPase cycle; assay type: biochemical, Porcine; set-up: β-Cardiac myosin-2 (S1, full-length); from tissue; host or cells: porcine cardiac muscle
# Description: To gain a better understanding of its mechanism of action, we examined the effect of EMD 57033-binding on the kinetic activity of the myosin motor. […] Fast mixing of excess ATP with β-cardiac myosin results in an increase of the protein’s intrinsic tryptophan fluorescence. The kinetic model predicts the double exponential ‘behavior’ of the observed transients to be associated with two discrete processes (Figure 3C). The fast process corresponds to the binding of ATP to the active site. The rate of the slow process saturates at ATP concentrations above 100 µM and can be attributed to the ATP hydrolysis step ([Deacon et al., 2012]). […] Phosphate release is the rate-limiting step of the β-cardiac myosin actin-activated ATPase cycle. It can be monitored by the fluorescence increase that is associated with the much faster binding of phosphate to the A197C mutant of Escherichia coli phosphate binding protein, labeled at Cys197 with the thiol reactive coumarin dye MDCC ([Brune et al., 1994]) (Figure 3F). […] The resulting values for k+4 indicate a 1.7-fold increase in the presence of the small compound.
# Stopped-flow experiments were performed using PiStar (Applied Photophysics, Leatherhead, UK) and Hi-Tech SF61 (TgK Scientific Limited, Bradford on Avon, UK) spectrophotometers at 20°C as described previously ([Taft et al., 2008]). Mant-nucleotides (Jena Bioscience, Germany) were excited at 365 nm and detected after passing through a KV 389 nm cut-off filter. Tryptophane fluorescence was excited at 297 nm and detected using a WG 320 nm cut-off filter. Long-time experiments were carried out using a shutter to avoid photo-bleaching. […] Phosphate release was measured using MDCC-PBP (N-[2-(1-maleimidyl)ethyl]-7-(diethylamino)coumarin-3-carboxamide fused to phosphate binding protein; obtained from Life Technologies, Carlsbad, CA) as described previously ([Brune et al., 1994]). Coumarin fluorescence was excited at 430 nm and detected using 455 nm cut-off-filter.
# Target sequence in this assay (P79293 whole entry): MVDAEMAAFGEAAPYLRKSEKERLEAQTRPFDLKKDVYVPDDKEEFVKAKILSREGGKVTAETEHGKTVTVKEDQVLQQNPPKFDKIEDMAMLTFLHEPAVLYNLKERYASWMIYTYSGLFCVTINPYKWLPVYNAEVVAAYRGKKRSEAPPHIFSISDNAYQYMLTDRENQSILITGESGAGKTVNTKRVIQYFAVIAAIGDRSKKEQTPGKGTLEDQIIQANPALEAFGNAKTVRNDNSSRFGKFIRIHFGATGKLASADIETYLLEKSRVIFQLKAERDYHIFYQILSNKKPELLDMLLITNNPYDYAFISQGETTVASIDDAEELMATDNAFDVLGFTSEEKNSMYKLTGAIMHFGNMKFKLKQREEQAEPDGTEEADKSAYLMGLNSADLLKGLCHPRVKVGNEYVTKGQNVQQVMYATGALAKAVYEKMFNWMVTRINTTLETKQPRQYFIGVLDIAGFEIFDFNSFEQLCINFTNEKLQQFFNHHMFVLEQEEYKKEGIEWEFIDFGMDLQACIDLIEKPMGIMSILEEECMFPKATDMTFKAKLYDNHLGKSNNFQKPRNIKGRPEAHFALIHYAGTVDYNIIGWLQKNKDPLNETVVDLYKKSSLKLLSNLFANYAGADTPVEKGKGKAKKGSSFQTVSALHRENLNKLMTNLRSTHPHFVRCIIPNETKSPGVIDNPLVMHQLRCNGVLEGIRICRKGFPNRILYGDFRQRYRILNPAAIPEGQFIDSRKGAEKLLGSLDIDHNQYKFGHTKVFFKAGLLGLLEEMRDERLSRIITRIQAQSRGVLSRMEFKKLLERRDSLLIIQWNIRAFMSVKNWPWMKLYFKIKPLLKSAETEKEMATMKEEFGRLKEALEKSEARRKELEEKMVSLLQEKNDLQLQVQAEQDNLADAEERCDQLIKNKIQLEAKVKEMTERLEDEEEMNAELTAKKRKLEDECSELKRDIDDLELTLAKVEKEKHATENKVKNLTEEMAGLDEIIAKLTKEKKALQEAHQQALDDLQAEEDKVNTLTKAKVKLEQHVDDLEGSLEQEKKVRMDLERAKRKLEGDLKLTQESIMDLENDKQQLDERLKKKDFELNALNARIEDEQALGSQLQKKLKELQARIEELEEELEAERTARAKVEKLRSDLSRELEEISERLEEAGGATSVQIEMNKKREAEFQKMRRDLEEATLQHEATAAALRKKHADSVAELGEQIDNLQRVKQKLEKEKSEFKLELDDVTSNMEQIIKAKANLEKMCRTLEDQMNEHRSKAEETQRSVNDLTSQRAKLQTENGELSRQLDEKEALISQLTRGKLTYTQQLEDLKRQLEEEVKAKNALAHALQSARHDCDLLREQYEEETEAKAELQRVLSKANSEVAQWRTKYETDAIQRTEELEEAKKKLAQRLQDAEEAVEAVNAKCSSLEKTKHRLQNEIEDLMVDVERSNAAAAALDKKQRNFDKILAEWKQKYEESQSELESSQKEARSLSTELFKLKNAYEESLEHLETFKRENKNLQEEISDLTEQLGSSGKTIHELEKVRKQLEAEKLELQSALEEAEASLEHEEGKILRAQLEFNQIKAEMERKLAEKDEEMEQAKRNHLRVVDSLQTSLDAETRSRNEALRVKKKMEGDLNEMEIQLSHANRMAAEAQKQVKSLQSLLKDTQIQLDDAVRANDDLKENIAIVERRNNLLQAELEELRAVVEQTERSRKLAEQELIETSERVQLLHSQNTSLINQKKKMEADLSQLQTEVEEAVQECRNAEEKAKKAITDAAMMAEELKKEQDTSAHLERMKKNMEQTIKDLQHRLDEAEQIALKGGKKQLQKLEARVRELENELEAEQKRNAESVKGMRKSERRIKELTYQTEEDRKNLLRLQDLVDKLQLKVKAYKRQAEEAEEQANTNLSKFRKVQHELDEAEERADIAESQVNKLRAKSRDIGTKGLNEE
# β-cardiac myosin [2] = target: T1, β-cardiac myosin; assay: Steady-state basal and actin-activated Mg2+-ATPase (NADH-coupled assay); assay type: biochemical, Porcine
# Target sequence in this assay (P79293 1-810 limits assumed): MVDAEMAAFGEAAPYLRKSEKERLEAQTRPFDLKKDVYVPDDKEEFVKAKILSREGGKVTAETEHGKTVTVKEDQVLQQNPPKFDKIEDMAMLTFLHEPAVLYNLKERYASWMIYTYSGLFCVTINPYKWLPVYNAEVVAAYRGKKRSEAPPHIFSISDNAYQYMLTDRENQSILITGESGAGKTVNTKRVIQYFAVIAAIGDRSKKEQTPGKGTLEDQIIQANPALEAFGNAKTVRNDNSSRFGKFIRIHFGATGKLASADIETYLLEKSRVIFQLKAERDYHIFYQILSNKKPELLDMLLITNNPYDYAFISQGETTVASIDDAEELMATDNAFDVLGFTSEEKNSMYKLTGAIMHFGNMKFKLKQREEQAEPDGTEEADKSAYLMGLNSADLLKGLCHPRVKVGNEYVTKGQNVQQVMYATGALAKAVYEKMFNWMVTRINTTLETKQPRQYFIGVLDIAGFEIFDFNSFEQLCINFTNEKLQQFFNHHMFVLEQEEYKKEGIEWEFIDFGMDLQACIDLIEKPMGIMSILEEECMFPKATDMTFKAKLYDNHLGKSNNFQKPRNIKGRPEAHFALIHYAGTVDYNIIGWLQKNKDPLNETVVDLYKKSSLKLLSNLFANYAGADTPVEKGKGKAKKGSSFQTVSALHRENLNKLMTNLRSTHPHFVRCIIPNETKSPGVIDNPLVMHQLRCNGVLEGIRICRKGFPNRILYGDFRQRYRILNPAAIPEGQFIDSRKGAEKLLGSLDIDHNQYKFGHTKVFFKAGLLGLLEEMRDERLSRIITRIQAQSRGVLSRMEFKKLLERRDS
# [3] = target: Skeletal muscle myosin-2 (HMM); assay: as above; assay type: biochemical, Rabbit
# Procedure: (§1) Rabbit fast skeletal muscle heavy meromyosin (HMM) was prepared as described by [Margossian and Lowey (1982)]. Porcine β-cardiac myosin was prepared essentially as described by [Pant et al. (2009)] and [Jacques et al. (2008)] and further purified by gel filtration. S1 and HMM fragments were produced by proteolytic digestion of the full-length proteins with 0.05 mg/ml papain (10 min, 25°C) for S1 and with 0.1 mg/ml TLCK-treated α-chymotrypsin (15 min, 25°C) for HMM. Reactions were stopped with specific protease inhibitors for papain (10 µM E−64) and chymotrypsin (10 µM chymostatin, 1 mM benzamidine). Proteolytic fragments were further purified by actin-coprecipitation. Pellets were washed twice and myosin was extracted from the pellets using ATP containing buffer. Gel filtration was used to further increase purity of myosin S1 and HMM fragments. His-tagged motor domain constructs of Dd myosin-2, Dd myosin-1B, Dd myosin-1C, Dd myosin-1D, Dd myosin-1E, Dd myosin-5b fused to two Dd α-actinin repeats substituting the light-chain binding domains ([Anson et al., 1996]) were expressed in Dd AX3-ORF + cells and purified by Ni^2+-chelate affinity chromatography ([Manstein and Hunt, 1995]).
# (§2) Basal and actin-activated Mg^2+-ATPase activities were measured using the NADH-coupled assay described previously ([Furch et al., 1998]) adapted for higher throughput screens for a temperature controlled plate reader (Multiscan FC, Thermo Scientific, Waltham, MA) at 25°C. […] Control measurements were carried out in the absence of drug, as well as in the presence of according concentrations of the non-binding (−)-enantiomer EMD 57439 to account for possible absorption effects. […] Data points are mean values from 3 to 5 independent experiments. Error bars indicate standard deviations.
# [4] = target: T2, β-cardiac myosin motor domain (Sus scrofa, UniProt P79293); assay: Melting temperature by circular dichroism at 222 nm; set-up: species or system Porcine; conditions: nucleotide-free, low salt, 100 µM (saturating) EMD 57033
# T2 construct: Melting curves of the β-cardiac myosin motor domain as determined by circular dichroism spectroscopy at 222 nm; from tissue; host or cells: porcine cardiac muscle
# Procedure: Circular dichroism and differential static light scattering experiments were performed to determine Tm.
# Protein solutions were diluted to a concentration of 0.3 mg/ml in a buffer containing 5 mM KPi pH 7.5, 15 mM KCl. Denaturation of β-cardiac myosin was measured by monitoring the temperature-dependent changes of ellipticity at 222 nm in a temperature controlled π*-180 Spectrometer equipped with a circular dichroism unit (Applied Photophysics, Leatherhead, UK). Measurements were performed in a 0.3-cm path length Quartz cuvette with a temperature gradient of 1°C min^−1. The transition midpoint of the unfolding reaction was calculated by fitting a Boltzmann function to the experimental data. Prior to measurements, the storage buffer of β-cardiac myosin that contains DTT and sucrose were exchanged using PD MiniTrap G-25 (GE Healthcare, Little Chalfont, UK) size exclusion columns equilibrated with CD Buffer (5 mM KPi pH 7.5, 15 mM KCl).
# β-cardiac myosin [5] = target: T1, β-cardiac myosin; assay: Steady-state basal and actin-activated Mg2+-ATPase (NADH-coupled assay); assay type: biochemical, Porcine; remark: listed apart in the source
# Procedure: as §1, §2
# Target sequence in this assay (P79293 1-810 limits assumed): as above
# T2 sequence (P79293 1-843 limits assumed): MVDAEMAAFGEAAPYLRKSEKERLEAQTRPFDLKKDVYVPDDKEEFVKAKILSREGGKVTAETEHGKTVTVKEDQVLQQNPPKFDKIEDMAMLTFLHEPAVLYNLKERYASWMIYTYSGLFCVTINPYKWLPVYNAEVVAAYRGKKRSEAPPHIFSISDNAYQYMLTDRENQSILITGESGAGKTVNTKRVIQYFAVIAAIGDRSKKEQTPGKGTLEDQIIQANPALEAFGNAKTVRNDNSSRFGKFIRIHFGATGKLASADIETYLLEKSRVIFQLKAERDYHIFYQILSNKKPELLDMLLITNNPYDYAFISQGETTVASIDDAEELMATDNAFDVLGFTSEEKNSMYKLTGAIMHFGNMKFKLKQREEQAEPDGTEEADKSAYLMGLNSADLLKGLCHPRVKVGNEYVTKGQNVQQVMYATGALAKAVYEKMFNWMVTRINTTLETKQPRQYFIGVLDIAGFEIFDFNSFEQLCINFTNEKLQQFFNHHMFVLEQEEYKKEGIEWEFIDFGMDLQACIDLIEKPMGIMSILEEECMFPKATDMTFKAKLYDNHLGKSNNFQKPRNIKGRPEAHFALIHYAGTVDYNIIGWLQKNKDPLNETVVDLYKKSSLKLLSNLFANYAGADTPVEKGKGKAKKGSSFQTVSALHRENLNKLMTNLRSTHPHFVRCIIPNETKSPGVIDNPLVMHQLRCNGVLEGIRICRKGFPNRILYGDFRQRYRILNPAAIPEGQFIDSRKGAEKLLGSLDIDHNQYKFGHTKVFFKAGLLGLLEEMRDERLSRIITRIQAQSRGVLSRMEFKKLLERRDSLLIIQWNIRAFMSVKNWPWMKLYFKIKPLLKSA
smiles,measurement,setting,value
COc1ccc(C(=O)N2CCCc3cc(C4=NNC(=O)SC4C)ccc32)cc1OC (stereo not drawn) [EMD 57033],"Effect on ADP-release step (k−D, k−AD)",β-cardiac myosin [1],appears unaffected
same,k+4 (phosphate release),"β-cardiac myosin [1]; 25 µM EMD 57033, F-Actin 25 µM and 25 µM ATP, MDCC-PBP",0.15 ± 0.01 s⁻¹
same,"k+2 ∼Change (−fold), increase",β-cardiac myosin [1]; 25 µM EMD 57033 vs control,3.8 fold
same,"k+4 ∼Change (−fold), increase",β-cardiac myosin [1]; EMD 57033 vs control,1.7 fold
same,"Net change in the rate of ATP turnover, single-turnover mantATP experiment","β-cardiac myosin [1]; actin-activated β-cardiac myosin, 25 µM EMD 57033",approximately twofold net increase
same,k+2 (conformational change after ATP binding),β-cardiac myosin [1]; in presence of 25 µM EMD 57033,174 ± 7 s⁻¹
same,k+3 + k−3 (rate of ATP hydrolysis),β-cardiac myosin [1]; in presence of 25 µM EMD 57033,24.5 ± 1.9 s⁻¹
same,"k−AD (ADP release, with actin)",β-cardiac myosin [1]; in presence of 25 µM EMD 57033,26.9 ± 4 s⁻¹
same,k−D (ADP release),β-cardiac myosin [1]; in presence of 25 µM EMD 57033,0.16 ± 0.04 s⁻¹
same,"Ea ∼Change (−fold), reduction",β-cardiac myosin [2]; EMD 57033 vs control,1.5 fold
same,Ea (Arrhenius activation energy of ATP turnover),"β-cardiac myosin [2]; in presence of EMD 57033, 25–45°C",7.41 kcal/mol and 7.41 ± 0.72 kcal/mol
same,AC50,[3],15.1 µM
same,Activation potency relative to β-cardiac myosin (weaker),[3],twofold
same,Normalized maximal ATPase activation (basal),[3],1.6
same,Normalized maximal ATPase activation (with 30 µM actin),[3]; 30 µM actin,2.2
same,Tm (melting temperature),[4],53.6 ± 1.9 °C
same,Normalized maximal ATPase activation (basal),β-cardiac myosin [5],1.5
same,"Effect on KM,ATP (Lineweaver–Burk plot)",β-cardiac myosin [5]; 25 µM EMD 57033,remains unaffected
same,kcat increase (Lineweaver–Burk plot),β-cardiac myosin [5]; 25 µM EMD 57033,1.5 fold
same,"kcat ∼Change (−fold), increase",β-cardiac myosin [5]; 25 µM EMD 57033 vs control,1.6 fold
same,kcat/KM(Actin) (initial slope) ∼Change (−fold),β-cardiac myosin [5]; 25 µM EMD 57033 vs control,~15.8 fold
same,Normalized maximal ATPase activation (with 30 µM actin),β-cardiac myosin [5]; 30 µM actin,2.5
same,kcat (actin-activated ATPase),β-cardiac myosin [5]; in presence of 25 µM EMD 57033,0.19 ± 0.02 s⁻¹
same,"kcat/KM(Actin), calculated ratio of both values",β-cardiac myosin [5]; in presence of 25 µM EMD 57033,0.0528 µM^v1 s^−1
same,Basal ATP turnover relative to that expected for 100% active protein,β-cardiac myosin [5]; saturating EMD 57033,1.5 fold
same,AC50,"β-cardiac myosin [5]; β-Cardiac myosin-2 (S1, full-length), read-out: AC50 ATPase (half-maximal activation)",7 µM
same,ATPase activity in excess of the value expected for a 100% active population of myosin heads,β-cardiac myosin [5]; β-cardiac myosin and Dd myosin-2 preparations together,30–50%
